Measurements as given in ChEMBL document CHEMBL1139263, “New lycorine-type alkaloid from Lycoris traubii and evaluation of antitrypanosomal and antimalarial activities of lycorine derivatives” (Bioorg Med Chem, 2008).
Converted amounts (≈) assume the structure as drawn.

Legend:
MRC5 = assay: Cytotoxicity against human MRC5 cells after 7 days by MTT assay; type: cell-based; settings: MRC5, 168 h
Plasmodium falciparum [1] = assay: Antimalarial activity against drug-resistant Plasmodium falciparum K1 infected human erythrocytes after 72 hrs; type: functional, organism-based; settings: K1, 72 h
[2] = Selectivity index ratio IC50 for human MRC5 cells to IC50 for Plasmodium falciparum K1; type: functional
Plasmodium falciparum [3] = assay: Antimalarial activity against drug-sensitive Plasmodium falciparum FCR3 infected human erythrocytes after 72 hrs; type: functional, organism-based; settings: FCR3, 72 h
[4] = Selectivity index ratio IC50 for human MRC5 cells to IC50 for Trypanosoma brucei brucei GUTat3.1; type: functional
[5] = Selectivity index ratio IC50 for human MRC5 cells to IC50 for Plasmodium falciparum FCR3; type: functional
[6] = tested on: Trypanosoma brucei brucei; assay: Antitrypanosomal activity against Trypanosoma brucei brucei GUTat3.1 after 72 hrs by alamar blue assay; type: functional, organism-based; settings: GUTat3.1, 72 h
[7] = tested on: Trypanosoma brucei rhodesiense; assay: Antitrypanosomal activity against Trypanosoma brucei rhodesiense STIB900 trypomastigotes; type: functional, organism-based
Plasmodium falciparum [8] = assay: Antimalarial activity against Plasmodium falciparum FAC8; type: functional, organism-based
Plasmodium falciparum [9] = assay: Antimalarial activity against Plasmodium falciparum D10; type: functional, organism-based

For `CCC(=O)O[C@H]1[C@H]2c3cc4c(cc3CN3CCC(=C[C@@H]1OC(=O)CC)[C@H]23)OCO4`, the IC50 (MRC5) was over 23.8 µg/mL, the IC50 (Plasmodium falciparum [1]) was 4.2 µg/mL (≈ 10.5 µM) and the “Ratio IC50” value [2] was over 23.8.
With `CCC(=O)O[C@H]1[C@H]2c3cc4c(cc3CN3CCC(=C[C@@H]1O)[C@H]23)OCO4` the IC50 (MRC5) was 4.99 µg/mL (≈ 14.5 µM), the IC50 (Plasmodium falciparum [3]) was 0.3 µg/mL (≈ 0.874 µM) and the IC50 (Plasmodium falciparum [1]) was 0.37 µg/mL (≈ 1.08 µM). The “Ratio IC50” value [4] was 3.7, the “Ratio IC50” value [5] was 16.6 and the “Ratio IC50” value [2] was 13.5. It also gave an IC50 [6] of 1.34 µg/mL (≈ 3.9 µM).
For `CC(=O)O[C@H]1[C@H]2c3cc4c(cc3CN3CCC(=C[C@@H]1O)[C@H]23)OCO4`, the IC50 (MRC5) was 1.29 µg/mL (≈ 3.92 µM), the IC50 (Plasmodium falciparum [3]) was 0.3 µg/mL (≈ 0.911 µM) and the IC50 (Plasmodium falciparum [1]) was 0.36 µg/mL (≈ 1.09 µM). For the same compound, the “Ratio IC50” value [4] was 0.2, the “Ratio IC50” value [5] was 4.3 and the “Ratio IC50” value [2] was 3.6. The IC50 [6] was 5.22 µg/mL (≈ 15.8 µM).
In the case of `NCCCC(N)(C(=O)O)C(F)F` (stereo not drawn) [EFLORNITHINE], the IC50 (MRC5) is reported as over 100 µg/mL, the “Ratio IC50” value [4] is reported as over 44 and the IC50 [6] is reported as 2.27 µg/mL (≈ 12.5 µM).
For `Cc1ccc(C(=O)Nc2ccc(S(=O)(=O)O)c3cc(S(=O)(=O)O)cc(S(=O)(=O)O)c23)cc1NC(=O)c1cccc(NC(=O)Nc2cccc(C(=O)Nc3cc(C(=O)Nc4ccc(S(=O)(=O)O)c5cc(S(=O)(=O)O)cc(S(=O)(=O)O)c45)ccc3C)c2)c1` [SURAMIN], the IC50 (MRC5) was over 100 µg/mL, the “Ratio IC50” value [4] was over 63 and the IC50 [6] was 1.58 µg/mL (≈ 1.22 µM).
With `N=C(N)c1ccc(OCCCCCOc2ccc(C(=N)N)cc2)cc1` [PENTAMIDINE] the IC50 (MRC5) was 5.71 µg/mL (≈ 16.8 µM), the “Ratio IC50” value [4] was 3614 and the IC50 [6] was 0.00158 µg/mL (≈ 0.00464 µM).
For `C[C@@H](O)CC(=O)O[C@@H]1[C@H]2c3cc4c(cc3CN3CCC(=C[C@@H]1O)[C@H]23)OCO4`, the IC50 (MRC5) was 6.35 µg/mL (≈ 17 µM), the IC50 (Plasmodium falciparum [3]) was 0.49 µg/mL (≈ 1.31 µM) and the IC50 (Plasmodium falciparum [1]) was 0.62 µg/mL (≈ 1.66 µM). For the same compound, the “Ratio IC50” value [4] was 2.6, the “Ratio IC50” value [5] was 13 and the “Ratio IC50” value [2] was 10.2. It also gave an IC50 [6] of 2.45 µg/mL (≈ 6.56 µM).
For `C[C@@H]1CC[C@H]2[C@@H](C)C(=O)O[C@@H]3O[C@@]4(C)CC[C@@H]1[C@]32OO4` [ARTEMISININ], the IC50 (Plasmodium falciparum [3]) was 0.006 µg/mL (≈ 0.0213 µM), the IC50 (Plasmodium falciparum [1]) was 0.0057 µg/mL (≈ 0.0202 µM) and the “Ratio IC50” value [5] was 7528.3. For the same compound, the “Ratio IC50” value [2] was 7924.5.
In the case of `CCCC(=O)O[C@H]1[C@H]2c3cc4c(cc3CN3CCC(=C[C@@H]1OC(=O)CCC)[C@H]23)OCO4`, the IC50 (Plasmodium falciparum [3]) is reported as 0.53 µg/mL (≈ 1.24 µM), the IC50 (Plasmodium falciparum [1]) is reported as 0.67 µg/mL (≈ 1.57 µM) and the “Ratio IC50” value [5] is reported as 27.5. The “Ratio IC50” value [2] was 21.7.
In the case of `C[C@H](O)CC(=O)O[C@H]1[C@H]2c3cc4c(cc3CN3CCC(=C[C@@H]1O)[C@H]23)OCO4`, the IC50 (MRC5) is reported as 8.11 µg/mL (≈ 21.7 µM), the IC50 (Plasmodium falciparum [3]) is reported as 0.45 µg/mL (≈ 1.21 µM) and the IC50 (Plasmodium falciparum [1]) is reported as 0.6 µg/mL (≈ 1.61 µM). For the same compound, the “Ratio IC50” value [4] was 4.3, the “Ratio IC50” value [5] was 18 and the “Ratio IC50” value [2] was 13.5. The IC50 [6] was 1.9 µg/mL (≈ 5.09 µM).
In the case of `CC(=O)O[C@H]1[C@H]2c3cc4c(cc3CN3CCC(=C[C@@H]1OC(C)=O)[C@H]23)OCO4`, the IC50 (MRC5) is reported as 18.1 µg/mL (≈ 48.8 µM), the IC50 [7] is reported as 1 µg/mL (≈ 2.69 µM) and the IC50 (Plasmodium falciparum [8]) is reported as 1 µg/mL (≈ 2.69 µM). For the same compound, the IC50 (Plasmodium falciparum [1]) was 7.6 µg/mL (≈ 20.5 µM), the “Ratio IC50” value [4] was under 1.4 and the “Ratio IC50” value [2] was 2.4. It also gave an IC50 [6] of over 12.5 µg/mL and an IC50 (Plasmodium falciparum [9]) of 1 µg/mL (≈ 2.69 µM).
Work on `CCCC(=O)O[C@H]1[C@H]2c3cc4c(cc3CN3CCC(=C[C@@H]1O)[C@H]23)OCO4` yielded an IC50 (MRC5) of 3.6 µg/mL (≈ 10.1 µM), an IC50 (Plasmodium falciparum [3]) of 0.32 µg/mL (≈ 0.895 µM) and an IC50 (Plasmodium falciparum [1]) of 0.41 µg/mL (≈ 1.15 µM). The “Ratio IC50” value [4] was 2.6, the “Ratio IC50” value [5] was 11.3 and the “Ratio IC50” value [2] was 8.8. The IC50 [6] was 1.38 µg/mL (≈ 3.86 µM).
For `CC(=O)O[C@H]1C=C2CCN3Cc4cc5c(cc4[C@H]([C@@H]1O)[C@@H]23)OCO5`, the IC50 (MRC5) was 6.11 µg/mL (≈ 18.6 µM), the IC50 (Plasmodium falciparum [1]) was 8.21 µg/mL (≈ 24.9 µM) and the “Ratio IC50” value [4] was 40.7. The “Ratio IC50” value [2] was 0.7 and the IC50 [6] was 0.15 µg/mL (≈ 0.455 µM).
